These results are taken from patent US9958451B2, “Near-infrared fluorescent dyes with large stokes shifts” (Portland State University, priority 2011, dated 2018).

Structures are written as SMILES. Several values for one entry are separate records, joined by “and”; a condition that tells them apart may be missing. Equal values may be shown once. Read-outs that look alike come from different tables or passages of the source.

A short description of data set [1]: Spectral properties of rhodamine bis-boronic acids and precursors in DMSO:buffer. Type of data set: physicochemical. The protocol: Characterization: The spectral properties of compounds 50-53 were determined. Absorption and fluorescence spectra of solutions of the rhodamine bis-boronic acids 51 and 53, and their respective precursors 50 and 52, are shown in FIGS. 27A-C (in DMSO:buffer 1:9) and 27D-F (DMSO:buffer 1:1). […] Excitation and emission spectra were normalized to their absorbance at the excitation wavelength, and are proportional to quantum yield.

For data set [2] the following is noted: 10 mM HEPES, pH 7.5, 15% (v/v) EtOH, Leytus et al., cited from earlier work.
A short description of data set [3]: Effect of pH / ionization on spectra. The data set is classed as physicochemical. The text has this: There are through-space polar interactions between R^18 and the internal bridge oxygen in compounds according to general formulas III, IX, and X. The field effect is further enhanced in the case of symmetric compounds, such as those according to general formula IV when R^19 is oxygen. A unique intramolecular hydrogen-bonding network also is present in such compounds, e.g., compound 8 (FIG. 25). This network produces enhanced negative charge density on the ionizable oxygen atoms, thereby promoting a relatively large bathochromic shift. […] The hydrogen bonding can be seen in compounds such as compound 8 by ^1H NMR spectroscopy. A redistribution of the electronic density around the hydrogen atom occurs upon hydrogen bond formation between the hydroxyl proton, the carbonyl, and the central oxygen of compound 8. […] Evidence of hydrogen bonding was also seen in compound 15a, but to a lesser degree. In compound 15a, the total hydrogen bond distance O—H—O between the hydroxyl at the R^18 position and the xanthene central oxygen is 2.95 Å, which falls in range of common hydrogen bonds.
Known seminaphthorhodafluors display long wavelength absorption at high pH; however, the free amino compound in this series respond to low pH with increased long wavelength absorption.

Data set [4] is described as follows: Quantum yield in 10:90 DMSO:aqueous solutions. The data set is classed as physicochemical. The protocol: The quantum yield of yellow-orange emitting 16a was 0.4649, 40 times greater than the corresponding neutral compound 15a. It was slightly higher than the yellow-green emitting neutral compound 20a, and >2 times higher than orange-red emitting anion 20c. The compounds (7.5 μM) were analyzed in 10:90 DMSO:aqueous solutions. Fluorescence emission was readily visible in a darkened room when the solutions were excited from below with 3-watt megaMAX 505 nm ALS system. The emission-enhancing properties afforded through the combination of the 3-1 transposition and methylation is in contrast to previously reported methyl ethers of seminaphthofluorescein compounds.

Data set [5] in a line: UV-visible absorbance spectroscopy, 15 μM in 90% aqueous, 10% DMSO. The data set is classed as physicochemical. The following applies: for Red shift of absorption spectra from 3-1 transposition versus known regiochemistry: depending on the ionization state. The protocol: Compounds 21 and 7 were characterized by UV-visible spectroscopy (FIG. 15). Absorbance was measured using 15 μM solutions of each compound in a solution that was 90% aqueous, 10% DMSO. The peaks at 600 nm (light dashed line) and 675 nm (light solid line) represent the dianions of compounds 21 and 7, respectively, in NaOH (pH 12). The peaks at 590 nm (heavy dashed line) and 650 nm (heavy solid line) represent a mix of mono- and dianions of compound 21 at pH 7.4 and predominantly monoanions of compound 7 at pH 9, respectively.
Compounds 22 and 8 were characterized by UV-visible spectroscopy (FIG. 16). Absorbance was measured using 15 μM solutions of each compound in a solution that was 90% aqueous, 10% DMSO. The peaks at 610 nm (light dashed line) and 685 nm (light solid line) represent the anions of compounds 22 and 8, respectively, in NaOH (pH 12). The peaks at 605 nm (heavy dashed line) and 805 nm (heavy solid line) represent the neutral forms of compounds 22 and 8 at pH 7.4, respectively.
Compounds 20a and 15a were characterized by UV-visible spectroscopy (FIG. 17). Absorbance was measured using 15 μM solutions of each compound in a solution that was 90% aqueous, 10% DMSO. The peaks at 545 nm (light dashed line) and 595 nm (light solid line) represent the respective anions, compounds 20c and 15h, in NaOH (pH 12).
Compound 15b (free amino) was characterized by UV-visible spectroscopy (FIG. 18), and compared to C.SNARF-5 (literature, SNARF=seminaphthorhodafluor). Absorbance was measured using a 15 μM solution of compound 15b in a solution that was 90% aqueous, 10% DMSO. The peak at 535 nm (heavy line) represents the predominantly phenolic form of 15b at pH 6. The peak at 615 nm (light line) represents the phenoxide of compound 15b at in NaOH (pH12). In comparison, C.SNARF-5 produces a peak at 550 nm (anionic form) and a peak at 485 nm (neutral form) (Whitaker et al., Anal. Biochem. 1991, 194, 330-344).
Absorbance was measured using 15 μM solutions of compound 15d in a solution that was 90% aqueous, 10% DMSO. The peak at 570 nm (heavy line) represents the predominantly neutral form of 15d at pH 6. The peak at 630 nm (light line) represents the phenoxide of compound 15d in NaOH (pH 12).
Compounds 20b and 15g were characterized by UV-visible spectroscopy (FIG. 20). Absorbance was measured using 15 μM solutions of each compound in a solution that was 90% aqueous, 10% DMSO. The peaks at 540 nm (dashed line) and 570 nm (solid line) represent the cations of compounds 20b and 15g, respectively, at pH 7.4.

The nature of data set [6]: Fluorescence emission spectra, 15 μM in 90% aqueous, 10% DMSO. The data set is classed as physicochemical. The following applies: for Red-shifted emission from 3-1 transposition versus known regiochemistry: longest wavelength-emitting species. The protocol: Compounds 21 and 7 also were characterized by their fluorescence emission spectra. Fluorescence was measured using 15 μM solutions of each compound in a solution that was 90% aqueous, 10% DMSO. For compound 21, the longest wavelength emission observed from the dianions occurred near 680 nm at pH 9. For compound 7 (transposed), the longest wavelength emission observed from the monoanion occurred near 800 nm at pH 9.
Compounds 22 and 8 also were characterized by their fluorescence emission spectra. Fluorescence was measured using 15 μM solutions of each compound in a solution that was 90% aqueous, 10% DMSO For compound 22, the longest wavelength emission observed from the anion occurred near 690 nm at pH 9. […] Given the greater than 800 nm absorbance peak and the typically large Stokes shifts observed in this class of compounds, it is likely that the emission was beyond the working range of the instrument (>850 nm).
Compounds 20 and 15a also were characterized by their fluorescence emission spectra. Fluorescence was measured using 15 μM solutions of each compound in a solution that was 90% aqueous, 10% DMSO. For compound 20a, the longest wavelength emission observed from its corresponding anion, compound 20c, occurred near 640 nm in NaOH (pH 12). For compound 15a (transposed), the longest wavelength emission observed from the corresponding anion, compound 15h, occurred near 760 nm in NaOH.
Compound 15b also was characterized by its fluorescence emission spectrum and compared to C.SNARF-5. Fluorescence was measured using a 15 μM solution of compound 15b in a solution that was 90% aqueous, 10% DMSO. For C.SNARF-5, the longest wavelength emission observed from the anion occurred near 632 nm (Whitaker et al., Anal. Biochem. 1991, 194, 330-344). For compound 15b (transposed), the longest wavelength emission observed from the phenoxide occurred near 770 nm.
Fluorescence was measured using a 15 μM solution of compound 15d in a solution that was 90% aqueous, 10% DMSO. […] For compound 15d (transposed), the longest wavelength emission observed from the phenoxide occurred near 780 nm (NaOH, pH 12).
Compounds 20b and 15g also were characterized by their fluorescence emission spectra. Fluorescence was measured using 15 μM solutions of each compound in a solution that was 90% aqueous, 10% DMSO. For compound 20b, the longest wavelength emission observed from the cation occurred near 640 nm at pH 7.4. For compound 15g (transposed), the longest wavelength emission observed from the cation occurred near 770 nm at pH 7.4.

Data set [7] can be described thus: Absorbance and fluorescence in methanol. The data set is classed as physicochemical. The protocol: Absorbance and fluorescence of compounds 22 and 8 also were measured in methanol. […] Thus, placement of the hydroxyl group proximal to the xanthene internal oxygen in compound 8 produced a bathochromic shift of 103 nm in the absorption spectrum. The transposition also imparted a corresponding shift in the excitation spectrum, and a large bathochromic shift of 128 nm in the fluorescence emission. Importantly, compound 8 absorbs and emits in the near-infrared with absorption and emission maxima of 701 nm and 816 nm, respectively.
Absorbance and fluorescence of compounds 20a and 15a also were measured in methanol. […] Thus, placement of the hydroxyl group proximal to the xanthene internal oxygen in compound 15a produced a bathochromic shift of 15 nm in the absorbance spectrum. The transposition also imparted a corresponding shift in the excitation spectrum, and a large bathochromic shift of 32 nm in the fluorescence emission.

[8] abbreviates: NaOH (pH 12), anionic/phenoxide form, 90% aqueous 10% DMSO.

Regarding `Cl.N=c1ccc2c(-c3ccccc3C(=O)O)c3ccc(N)cc3oc-2c1` [Rhodamine 110], in data set [1] (DMSO:buffer 1:1), the Em is 526 nm, the Ex is reported as 502 nm and the ε is 67905 M⁻¹ cm⁻¹. In data set [1] (DMSO:buffer 1:1, pH 7.4 phosphate buffer 12.5 mM), the Abs was 503 nm. Further, in data set [2], the Abs was 495 nm, the Em was 523 nm and the Q.Y. was 0.91. Moreover, in data set [2] (@ 492), the Brightness is 60788 @ 492 and the ε is 66800 M⁻¹ cm⁻¹.
Take `COC(=O)c1ccccc1-c1c2ccc(=O)cc-2oc2c1ccc1cccc(N)c12` [Compound 15e]: in data set [3], the “Response of absorption to pH (pH titration)” value was “increased long wavelength absorption and decreased short wavelength absorption at low pH”.
Regarding `COC(=O)c1ccccc1-c1c2ccc(=O)cc-2oc2c1ccc1cccc(OC)c12` [Compound 16a, methyl 2-(1-methoxy-10-oxo-10H-benzo[c]xanthen-7-yl)benzoate], in data set [4] (7.5 μM, 10:90 DMSO:aqueous), the Quantum yield is listed as 0.4649, the “Quantum yield relative to anion 20c” value is greater than 2 times and the “Quantum yield relative to neutral compound 15a” value turned out to be 40 times.
Turning to `Cc1ccc(C)c(-c2c3ccc4cccc(O)c4c3oc3c2ccc2cccc(=O)c23)c1` [Compound 10, 7-(2,5-dimethylphenyl)-13-hydroxy-1H-dibenzo[c,h]xanthen-1-one], the “Shift of the absorption maximum on deprotonation” value in data set [3] is on record as “hypsochromic”.
Turning to `O=C1OC2(c3ccccc31)c1ccc3cccc(O)c3c1Oc1c2ccc2cccc(O)c12` [Compound 7], the “Red shift of absorption spectra from 3-1 transposition versus known regiochemistry” value (from here on “Red shift of absorption spectra”) in data set [5] (90% aqueous 10% DMSO) is recorded as 60-75 nm. Further, the Absorbance peak was 675 nm in data set [5] (setting [8]) and 650 nm in data set [5] (pH 9, predominantly monoanions). Also, in data set [6], the Stokes shift entry is “about 150 nm”. In addition, the Longest wavelength emission entry in data set [6] (NaOH (pH 12), anion/phenoxide) was “too weak to be detected or, more likely, beyond the working range of the instrument”; in data set [6] (pH 9) it was roughly 800 nm. Besides, in data set [6], the “Red-shifted emission from 3-1 transposition versus known regiochemistry” value is “about 120 nm”. In data set [3] (1:9 DMSO:buffer), the “Form below physiological pH of 7.4” value is given as “colorless lactone”.
On to `COC(=O)c1ccccc1-c1c2ccc3cccc(O)c3c2oc2c1ccc1cccc(=O)c12` [Compound 8], for which the “Red shift of absorption spectra” value in data set [5] (90% aqueous 10% DMSO) was 75-200 nm. The Absorbance peak in data set [5] (setting [8]) is reported as 685 nm. In data set [6], the Stokes shift result is recorded as “unmeasurable” and the “Red-shifted emission from 3-1 transposition versus known regiochemistry” value is “more than 160 nm”. Further, the Longest wavelength emission entry in data set [6] (pH not stated) is “emission was not observed”. In data set [7], the Absorption maximum was found to be 701 nm, the “Bathochromic shift in the absorption spectrum versus known regiochemistry” value is recorded as 103 nm, the “Bathochromic shift in the fluorescence emission versus known regiochemistry” value was determined as 128 nm and the Emission maximum is on record as 816 nm. In data set [3], the “Shift of the absorption maximum on deprotonation” value is listed as “does not result in a large bathochromic shift” and the “pH up to which NIR fluorescence was observed” value was no more than 9.
`COC(=O)c1ccccc1-c1c2ccc(=O)cc-2oc2c1ccc1cccc(O)c12` [Compound 15h]: the “Red shift of absorption spectra” value in data set [5] (90% aqueous 10% DMSO) turned out to be 50 nm. In addition, the Absorbance peak in data set [5] (setting [8]) was 595 nm and 599 nm. In addition, the “Enhancement of the Stokes shift by 3-1 transposition” value in data set [6] is reported as “about 70 nm”. For the same compound, in data set [6] (NaOH (pH 12), anion/phenoxide), the Longest wavelength emission came out at 760 nm. For the same compound, the Quantum yield result in data set [4] (aqueous solution) was “less than 1%”.
